Data taken from patent US20130296250A1, “METHOD FOR TREATMENT OF PSORIASIS” (priority 2011, published 2013).
The star is where a group is joined. Myristoyl = CCCCCCCCCCCCCC(=O)*

Assays:
[1] = test system: Keratinocytes derived from newborn C57BL/6 mice skin; test: Cytokine secretion in LPS activated keratinocytes, Luminex; format: cell-based; conditions: peptide inhibitors, FIGS. 19 to 23
Source text: Resident skin cells and immunological cells (both resident and infiltrating cells) interact in the inflammatory psoriatic process by cell-cell interactions and cytokine secretion. Thus, HO/02/10 was examined for its direct effect on the secretion of pro-inflammatory, chemoattractant and immunological pathway related cytokines form both keratinocytes and immune cells such as macrophages and dendritic cells.
The results of FIGS. 17A and 17B show the effect of HO/02/10 on cytokine secretion in keratinocytes. Keratinocytes were derived from newborn C57BL/6 mice skin. The cells were incubated for 5 days in 24 wells plates. Cells were then treated with DPBS−/−, LPS (100 ng/ml), or HO/02/10 (1 μg/ml)+LPS ([…]). Medium containing secreted cytokines was collected after 48 hr and analyzed using a Luminex system.

[2] = test system: TNFα activated keratinocytes; test: Cytokine secretion in TNFα activated keratinocytes; format: cell-based; conditions: peptide inhibitors, FIGS. 19 to 23
[3] = test system: IL-17A activated keratinocytes; test: Cytokine secretion in IL-17A activated keratinocytes; format: cell-based; conditions: peptide inhibitors, FIGS. 24 to 27
C57BL/6J mouse [4] = test: Macrophage infiltration in wound, Iba-1 staining; format: in vivo; conditions: daily treatment, five days post-wounding
Method: The effect of MPDY-1 on macrophage infiltration was also shown by Iba-1 staining. Iba-1 is a general marker for macrophages. […] As above, a two-cm longitudinal incision was done on the upper back of a C57BL/6J mouse. Following wounding, a sterile pad was sutured to the mouse's skin. Animals were treated daily with MPDY-1 (n=6). Five days post-wounding, when inflammatory phase reaches its peak, the mice were sacrificed, skin tissues were embedded in paraffin and immunohistochemical staining was performed utilizing anti-Iba-1 antibodies.

C57BL/6J mouse [5] = test: Macrophage activation in wound, MAC-2 staining; format: in vivo; conditions: daily treatment, 5 days; 1, 10 and 100 micrograms per mL
Method: The effect of MPDY-1 on macrophage activation was also shown by MAC-2 staining. MAC-2 is a specific marker for activated macrophages. […] A two-cm longitudinal incision was done as described above. Animals were treated daily with DPBS^−/− (Control) or MPDY-1 in the specified concentrations (n=6). After 5 days immunohistochemical staining was performed utilizing anti-MAC-2 antibodies. Bar […]. (*p(control Vs. MPDY-1 10 μg)=0.0028).

| Substance | cytokine secretion from LPS activated keratinocytes [1] | cytokine secretion from TNFα activated keratinocytes [2] | cytokine secretion from IL-17A activated keratinocytes [3] | macrophage infiltration (Iba-1 positive cells per field) (C57BL/6J mouse [4]) | activation of macrophages (MAC-2 positive cells per field) (C57BL/6J mouse [5]) |
| --- | --- | --- | --- | --- | --- |
| H-Phe-Ala-Arg-Lys-Gly-Ala-Leu-Arg-Gln-OH-acetate salt (H-FARKGALRQ-OH; also: acetate salt) [PDY-1] | decrease cytokine secretion | decrease cytokine secretion | decrease cytokine secretion | – | – |
| Myristoyl-Phe-Ala-Arg-Lys-Gly-Ala-Leu-Arg-Gln-OH (Myristoyl-FARKGALRQ-OH; SMILES CCCCCCCCCCCCCC(=O)N[C@@H](Cc1ccccc1)C(=O)N[C@@H](C)C(=O)N[C@@H](CCCNC(=N)N)C(=O)N[C@@H](CCCCN)C(=O)NCC(=O)N[C@@H](C)C(=O)N[C@@H](CC(C)C)C(=O)N[C@@H](CCCNC(=N)N)C(=O)N[C@@H](CCC(N)=O)C(=O)O) [MPDY-1] | decrease cytokine secretion | decrease cytokine secretion | decrease cytokine secretion | dose dependent effect | significantly inhibited |
| Myristoyl-Phe-Ala-Arg-Lys-Gly-Ala-Leu-OH (Myristoyl-FARKGAL-OH; SMILES CCCCCCCCCCCCCC(=O)N[C@@H](Cc1ccccc1)C(=O)N[C@@H](C)C(=O)N[C@@H](CCCNC(=N)N)C(=O)N[C@@H](CCCCN)C(=O)NCC(=O)N[C@@H](C)C(=O)N[C@@H](CC(C)C)C(=O)O) [MPDY-1 sh] | decrease cytokine secretion | decrease cytokine secretion | decrease cytokine secretion | – | – |
